Publication PMC8267566, “Human GPR17 missense variants identified in metabolic disease patients have distinct downstream signaling profiles” (The Journal of Biological Chemistry, 2021)

Assays:
Type in all cases: cell-based
hGPR17L-F43L = target: T1, hGPR17L-F43L (Homo sapiens, UniProt Q13304, F43L); assay: GloSensor cAMP assay, inhibition of forskolin-stimulated cAMP
T1 construct: expressed in transfected cells; host or cells: HEK293 (ATCC CRL-1573), transient transfection
Method: (§1) HEK293 cells were seeded at 20,000 cells/well into white, opaque 96-well plates. The next day, cells were transiently cotransfected with pGloSensor-cAMP-22F and pcDNA3-HA-hGPR17L or pcDNA3-HA-hGPR17L-variants using lipofectamine 3000. Twenty-four hours posttransfection, growth medium and transfection mix were aspirated and replaced with 100 μl/well equilibration medium (2% Promega GloSensor cAMP reagent [E1291; Promega Corporation] in CO2-independent medium) and incubated at room temperature for 2 h. Baseline luminescence was read on a Molecular Devices SpectraMax iD5 plate reader (Molecular Devices) at ambient room temperature for 8 min. Subsequently, 10 μl/well MDL29,951 diluted in assay buffer (HBSS, 20 mM HEPES, pH 7.2) was added and luminescence was read for 10 min. Finally, 10 μl/well forskolin (1099; Tocris Bioscience) diluted in assay buffer was added and luminescence was measured for 20–30 min. The average luminescence value for the 14–20 min time points for each well was normalized to their average baseline luminescence value and expressed as a percentage of the forskolin-stimulated response within each transfection condition.

hGPR17L-R301H = target: T2, hGPR17L-R301H (Homo sapiens, UniProt Q13304, R301H); assay: as above
T2 construct: expressed in transfected cells; host or cells: HEK293 (ATCC CRL-1573)
Method: as §1

hGPR17L-V103M = target: T3, hGPR17L-V103M (Homo sapiens, UniProt Q13304, V103M); assay: as above
T3 construct: expressed in transfected cells; host or cells: HEK293 (ATCC CRL-1573), transient transfection
Method: as §1

hGPR17L-G354V = target: T4, hGPR17L-G354V (Homo sapiens, UniProt Q13304, G354V); assay: as above
T4 construct: expressed in transfected cells; host or cells: HEK293 (ATCC CRL-1573)
Method: as §1

hGPR17L-A131T = target: T5, hGPR17L-A131T (Homo sapiens, UniProt Q13304, A131T); assay: as above
T5 construct: expressed in transfected cells; host or cells: HEK293 (ATCC CRL-1573), transient transfection
Method: as §1

hGPR17L-V96M [1] = target: T6, hGPR17L-V96M (Homo sapiens, UniProt Q13304, V96M); assay: as above
T6 construct: expressed in transfected cells; host or cells: HEK293 (ATCC CRL-1573), transient transfection
Method: as §1

hGPR17L-G136S = target: T7, hGPR17L-G136S (Homo sapiens, UniProt Q13304, G136S)
T7 construct: expressed in transfected cells; host or cells: HEK293 (ATCC CRL-1573), transient transfection
Method: (§2) For agonist-mediated stimulatory cAMP assays, HEK293 cells were seeded and transfected as noted above. Cells were treated with 100 ng/ml pertussis toxin overnight (Sigma-Aldrich P2980). Twenty-four hours posttransfection, growth medium and transfection mix were aspirated and replaced with 100 μl/well equilibration medium (2% Promega GloSensor cAMP reagent [E1291; Promega Corporation] in CO2-independent medium) containing 100 ng/ml pertussis toxin and incubated at room temperature for 2 h. Baseline luminescence was read every 2 min on a Molecular Devices SpectraMax iD5 plate reader (Molecular Devices) at ambient room temperature for 8 min. Subsequently, 10 μl/well MDL29,951 diluted in assay buffer (HBSS, 20 mM HEPES, pH 7.2) was added and luminescence was read every 2 min for 16 min. Within each well, the luminescence values for each time point were normalized to their average baseline luminescence values. The average luminescence values for the time points between 8 and 16 min after MDL29,951 addition were expressed as a percentage of the maximum response observed for hGPR17L-WT.

hGPR17L-WT = target: T8, hGPR17L-WT (Homo sapiens, UniProt Q13304)
T8 construct: expressed in transfected cells; host or cells: HEK293 (ATCC CRL-1573), transient transfection of pcDNA3-HA-hGPR17L
Method: as §2

hGPR17L-D105N = target: T9, hGPR17L-D105N (Homo sapiens, UniProt Q13304, D105N)
T9 construct: expressed in transfected cells; host or cells: HEK293 (ATCC CRL-1573), transient transfection
Method: as §2

hGPR17L-V96M [2] = target: T6, hGPR17L-V96M
Method: as §2

[3] = HEK293, inhibition of 3 μM forskolin-stimulated cAMP
[4] = read-out: cAMP IC50, HEK293, inhibition of 3 μM forskolin-stimulated cAMP

T1 sequence (Q13304 whole entry F43L): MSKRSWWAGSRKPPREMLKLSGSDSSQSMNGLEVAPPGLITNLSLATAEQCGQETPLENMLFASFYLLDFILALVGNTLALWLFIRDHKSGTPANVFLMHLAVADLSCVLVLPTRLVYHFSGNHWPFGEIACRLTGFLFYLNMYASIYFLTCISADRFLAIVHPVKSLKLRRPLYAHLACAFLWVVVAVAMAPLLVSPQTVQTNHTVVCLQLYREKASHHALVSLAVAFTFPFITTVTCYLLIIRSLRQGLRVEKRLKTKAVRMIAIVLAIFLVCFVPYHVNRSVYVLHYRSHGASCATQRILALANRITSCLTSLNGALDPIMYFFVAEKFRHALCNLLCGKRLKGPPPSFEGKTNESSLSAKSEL
T5 sequence (Q13304 whole entry A131T): as the sequence (Q13304 whole entry F43L) above, with L43F, A131T counted along it
T8 sequence (Q13304 whole entry): as the sequence (Q13304 whole entry F43L) above, with L43F counted along it
T4 sequence (Q13304 whole entry G354V): as the sequence (Q13304 whole entry F43L) above, with L43F, G354V counted along it
T6 sequence (Q13304 whole entry V96M): as the sequence (Q13304 whole entry F43L) above, with L43F, V96M counted along it
T3 sequence (Q13304 whole entry V103M): as the sequence (Q13304 whole entry F43L) above, with L43F, V103M counted along it
T2 sequence (Q13304 whole entry R301H): as the sequence (Q13304 whole entry F43L) above, with L43F, R301H counted along it
T7 sequence (Q13304 whole entry G136S): as the sequence (Q13304 whole entry F43L) above, with L43F, G136S counted along it
T9 sequence (Q13304 whole entry D105N): as the sequence (Q13304 whole entry F43L) above, with L43F, D105N counted along it

O=C(O)CCc1c(C(=O)O)[nH]c2cc(Cl)cc(Cl)c12 [MDL29,951]
cAMP Efficacy (% inhibition) (hGPR17L-F43L; HEK293, 3 μM forskolin): 44 ± 2.7 % inhibition | cAMP 10 μM MDL +3 μM FSK (% of FSK) (hGPR17L-F43L; HEK293, 10 μM MDL29,951): 107 ± 24 % of FSK | cAMP 100 μM MDL +3 μM FSK (% of FSK) (hGPR17L-F43L; HEK293, 100 μM MDL29,951): 145 ± 30 % of FSK | cAMP pIC50 ± SEM (hGPR17L-F43L; [3]): 8.81 ± 0.37 | IC50 (hGPR17L-F43L; [4]): 1.6 nM | cAMP Efficacy (% inhibition) (hGPR17L-R301H; HEK293, 3 μM forskolin): 52 ± 5.2 % inhibition | cAMP 10 μM MDL +3 μM FSK (% of FSK) (hGPR17L-R301H; HEK293, 10 μM MDL29,951): 72 ± 2.5 % of FSK | cAMP 100 μM MDL +3 μM FSK (% of FSK) (hGPR17L-R301H; HEK293, 100 μM MDL29,951): 101 ± 2.9 % of FSK | cAMP pIC50 ± SEM (hGPR17L-R301H; [3]): 8.00 ± 0.46 | IC50 (hGPR17L-R301H; [4]): 10 nM | cAMP Efficacy (% inhibition) (hGPR17L-V103M; HEK293, 3 μM forskolin): 40 ± 1.3 % inhibition | cAMP 10 μM MDL +3 μM FSK (% of FSK) (hGPR17L-V103M; HEK293, 10 μM MDL29,951): 81 ± 4.0 % of FSK | cAMP 100 μM MDL +3 μM FSK (% of FSK) (hGPR17L-V103M; HEK293, 100 μM MDL29,951): 101 ± 4.0 % of FSK | cAMP pIC50 ± SEM (hGPR17L-V103M; [3]): 9.24 ± 0.41 | IC50 (hGPR17L-V103M; [4]): 0.57 nM | cAMP Efficacy (% inhibition) (hGPR17L-G354V; HEK293, 3 μM forskolin): 42 ± 6.7 % inhibition | cAMP 10 μM MDL +3 μM FSK (% of FSK) (hGPR17L-G354V; HEK293, 10 μM MDL29,951): 91 ± 13 % of FSK | cAMP 100 μM MDL +3 μM FSK (% of FSK) (hGPR17L-G354V; HEK293, 100 μM MDL29,951): 113 ± 10 % of FSK | cAMP pIC50 ± SEM (hGPR17L-G354V; [3]): 8.34 ± 0.25 | IC50 (hGPR17L-G354V; [4]): 4.6 nM | cAMP Efficacy (% inhibition) (hGPR17L-A131T; HEK293, 3 μM forskolin): 44 ± 4.5 % inhibition | cAMP 10 μM MDL +3 μM FSK (% of FSK) (hGPR17L-A131T; HEK293, 10 μM MDL29,951): 77 ± 3.5 % of FSK | cAMP 100 μM MDL +3 μM FSK (% of FSK) (hGPR17L-A131T; HEK293, 100 μM MDL29,951): 109 ± 5.3 % of FSK | cAMP pIC50 ± SEM (hGPR17L-A131T; [3]): 8.31 ± 0.13 | IC50 (hGPR17L-A131T; [4]): 4.9 nM | cAMP Efficacy (% inhibition) (hGPR17L-V96M [1]; HEK293, 3 μM forskolin): 36 ± 4.2 % inhibition | cAMP 10 μM MDL +3 μM FSK (% of FSK) (hGPR17L-V96M [1]; HEK293, 10 μM MDL29,951): 60 ± 5.6 % of FSK | cAMP 100 μM MDL +3 μM FSK (% of FSK) (hGPR17L-V96M [1]; HEK293, 100 μM MDL29,951): 65 ± 4.6 % of FSK | cAMP pIC50 ± SEM (hGPR17L-V96M [1]; [3]): 8.77 ± 0.36 | IC50 (hGPR17L-V96M [1]; [4]): 1.7 nM | stimulatory cAMP response (hGPR17L-G136S): unable to promote stimulatory cAMP responses | Stimulatory cAMP Efficacy (% of WT Emax) (hGPR17L-WT): 100 % of WT Emax | Stimulatory cAMP pEC50 ± SEM (hGPR17L-WT): 5.18 ± 0.04 | maximum stimulatory cAMP response (hGPR17L-WT): 1.21 ± 0.24 ΔRLU/RLU | EC50 (hGPR17L-WT; read-out: Stimulatory cAMP EC50): 6600 nM | stimulatory cAMP response (hGPR17L-D105N): unable to promote stimulatory cAMP responses | stimulatory cAMP response (hGPR17L-V96M [2]): unable to promote stimulatory cAMP responses
